One experiment has as its target T1, recombinant Aurora A (Homo sapiens, UniProt O14965).
T1 construct: purchased Upstate, Lake Placid, N.Y
T1 sequence (O14965 1-403): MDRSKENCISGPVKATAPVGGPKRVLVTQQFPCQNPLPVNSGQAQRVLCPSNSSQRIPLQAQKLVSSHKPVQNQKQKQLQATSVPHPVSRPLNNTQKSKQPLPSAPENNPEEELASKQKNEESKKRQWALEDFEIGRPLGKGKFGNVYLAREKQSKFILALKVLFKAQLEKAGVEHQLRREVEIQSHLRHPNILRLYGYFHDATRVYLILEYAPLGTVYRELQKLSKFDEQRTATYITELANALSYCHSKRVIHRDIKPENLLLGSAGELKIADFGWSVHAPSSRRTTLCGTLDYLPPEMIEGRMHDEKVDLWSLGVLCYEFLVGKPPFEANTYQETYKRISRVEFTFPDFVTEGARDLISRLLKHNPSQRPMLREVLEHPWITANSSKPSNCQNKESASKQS
In words: Aurora A (Aurora 2) Inhibition Assay (Z'-Lyte). The format is biochemical. Conditions: 100 μM compound; ATP 10 μM; 1 h. The method, then:
Compounds were tested for their potency against recombinant Aurora A (Upstate, Lake Placid, N.Y.) using the PanVera Z'-Lyte kinase assay kit-Ser/[…] peptide (Invitrogen, Carlsbad, Calif.). […] Assays were carried out in half-area 96-well white polystyrene assay plates (Corning, Corning, N.Y.) in a final volume of 20 μl. The reaction was allowed to proceed for 1 h at room temperature in the dark, at which point the development reagent and stop reagent were added according to the manufacturer's instructions. Coumarin (Ex. 400 nm, Em. 465 nm) and fluorescein (Ex. 400 nm, Em. 565 nm) fluorescence values were measured on a SpectraFluor Plus plate reader (Tecan, Durham, N.C.). The emission ratio (coumarin/fluorescein) was determined and used to calculate the percent phosphorylation for each well. […] Typically 20-40% of the substrate was phosphorylated in wells without inhibitor. Dose-response curves of relative Aurora A activity vs. inhibitor concentration were plotted with Grafit (Erithacus Software, Horley, Surrey, UK).

The test system of the next experiment is HCT-116 cell growth. In words: Whole Cell Cytotoxicity Assay: Sulforhodamine B. The format is cell-based, Human. The note with it: Homo sapiens, HCT-116; 100 μM compound; 96 hours; SRB staining. The method, then: Human tumor-derived cell lines, HCT116 or MCF7 (ATCC) were plated in a 96 well plate in DMEM containing 10% fetal bovine serum and 2 mM L-glutamine at a density of 500 HCT116 cells or 1,000 MCF7 cells per well and incubated at 37° C., 5% CO2, for 24 hours prior to the addition of experimental compounds. Compounds were added using the dilution series indicated to duplicate plates and the cells were incubated in media plus compound for 96 hours. An additional plate was fixed in 10% TCA at the time of the addition of compound to provide a measurement of the cell population at time zero, the time of drug addition. Following the 96 hour incubation, cells were fixed in situ by gently aspirating off the culture media and then adding 50 ul of ice cold 10% TCA per well and incubation at 4° C. for 60 minutes. The plates were washed with tap water five times and allowed to air dry for 5 minute. 50 ul of a 0.4% (w/v) Sulforhodamine B solution in 1% (v/v) acetic acid was added per well and the cells were incubated for 30 minutes at room temperature. Following staining, plates were washed four times with 1% acetic acid to remove any unbound dye and then allowed to air dry for 5 minutes. The stain was solubilized with 100 ul of 10 mM Tris pH 10.5 per well and placed on an orbital rotator for 5 minutes. The absorbance was read at 570 nm. Percentage growth was calculated using the absorbance readings from the time zero plate (Tz) and the dilution series plate […] which included a column of cells grown in media without compound as a control (C) using the formulas: [(Ti−Tz)/(C−Tz)]×100 for concentrations for which Ti>/=Tz [(Ti−Tz)/Tz]×100 for concentrations for which Ti<Tz.
Three dose response parameters were calculated for each experimental agent. Growth inhibition of 50% (GI50) was calculated from [(Ti−Tz)/(C−Tz)]×100=50, which was the drug concentration resulting in a 50% reduction in the net protein increase (as measured by SRB staining) in control cells during the drug incubation. The drug concentration resulting in total growth inhibition (TGI) was calculated from Ti=Tz. The LC50 (concentration of drug resulting in a 50% reduction in the measured protein at the end of the drug treatment as compared to that at the beginning) indicating a net loss of cells following treatment was calculated from [(Ti−Tz)/Tz]×100=−50. Values are calculated for each of these three parameters if the level of activity was reached; however, if the effect was not reached or was exceeded, the value for that parameter is expressed as greater or less than the maximum or minimum concentration tested.
On the technique in general: Sulforhodamine B stains cellular protein and so reports cell mass.

As for `Cc1cc(Nc2nc(/C=C/c3ccccc3)nc(N3CCOCC3)c2N)[nH]n1` [Example 12, N-(3-methyl-1H-pyrazol-5-yl)-6-(morpholin-4-yl)-2-[(E)-2-phenylvinyl]pyrimidin-4,5-diamine], the inhibition (as a rule, the share of the control response that was lost under treatment) at 100 µM was determined as 100% at recombinant Aurora A and 99% in the experiment with HCT-116 cell growth. The like results for `CCOC(=O)c1nc(/C=C/c2ccc(OC)cc2)nc(Nc2cc(C)n[nH]2)c1N` [Example 23, ethyl 5-amino-2-[(E)-2-(4-methoxyphenyl)vinyl]-6-[(3-methyl-1H-pyrazol-5-yl)amino]pyrimidine-4-carboxylate] were, in that order, 99% and 91%.

Regarding `CCOC(=O)c1nc(/C=C/c2ccc(Cl)cc2)nc(Nc2cc(C)n[nH]2)c1N` [Example 19, ethyl 5-amino-2-[(E)-2-(4-chlorophenyl)vinyl]-6-[(3-methyl-1H-pyrazol-5-yl)amino]pyrimidine-4-carboxylate], the inhibition at 100 µM came out at 99% at recombinant Aurora A and 96% with HCT-116 cell growth. `Cc1ccc(/C=C/c2nc(Nc3cc(C)[nH]n3)c([N+](=O)[O-])c(N3CCN(C)CC3)n2)cc1` [Example 169]: on recombinant Aurora A, the inhibition at 100 µM came out at 95%.

With `Cc1cc(Nc2cc(NCCN3CCN(C)CC3)nc(/C=C/c3ccccc3)n2)n[nH]1` [Example 77, N^4-(5-methyl-1H-pyrazol-3-yl)-N^6-(2-(4-methylpiperazin-1-yl)ethyl)-2-styrylpyrimidine-4,6-diamine], the inhibition at 100 µM is 100% at recombinant Aurora A and 99% in the experiment on HCT-116 cell growth. As to `CCOC(=O)c1nc(/C=C/c2ccc(C(F)(F)F)cc2)nc(Nc2cc(C)n[nH]2)c1N` [Example 20, ethyl 5-amino-6-[(3-methyl-1H-pyrazol-5-yl)amino]-2-{(E)-2-[4-(trifluoromethyl)phenyl]vinyl}pyrimidine-4-carboxylate], the inhibition at 100 µM came to 77% at recombinant Aurora A and 97% in the experiment on HCT-116 cell growth. Regarding `CCOC(=O)c1nc(/C=C/c2ccc(C)cc2)nc(Nc2cc(C)n[nH]2)c1N` [Example 21, ethyl 5-amino-2-[(E)-2-(4-methylphenyl)vinyl]-6-[(3-methyl-1H-pyrazol-5-yl)amino]pyrimidine-4-carboxylate], the results for the inhibition at 100 µM on recombinant Aurora A and in the experiment on HCT-116 cell growth were 100% and 93%, respectively. For `Cc1cc(Nc2nc(/C=C/c3ccccc3)nc(C(=O)OC3CCN(C)CC3)c2N)[nH]n1` [Example 24, 1-methylpiperidin-4-yl 5-amino-6-[(3-methyl-1H-pyrazol-5-yl)amino]-2-[(E)-2-phenylvinyl]pyrimidine-4-carboxylate], the values for the inhibition at 100 µM at recombinant Aurora A and in the experiment on HCT-116 cell growth were 100% and 99%, respectively.

For the compound `Cc1cc(Nc2cc(NCCN(C)C)nc(/C=C/c3ccccc3)n2)n[nH]1` [Example 66, N^4-(2-(dimethylamino)ethyl)-N^6-(5-methyl-1H-pyrazol-3-yl)-2-styrylpyrimidine-4,6-diamine], the inhibition at 100 µM at recombinant Aurora A stood at 100%; in the experiment on HCT-116 cell growth, 98%. In the case of `Cc1cc(Nc2nc(/C=C/c3ccc(F)cc3)nc(N3CCN(C)CC3)c2N)n[nH]1` [Example 173], the inhibition at 100 µM was 100% on recombinant Aurora A and 98% in the experiment with HCT-116 cell growth. As to `COc1ccc(/C=C/c2nc(Nc3cc(C)[nH]n3)cc(N3CCN(C)CC3)n2)cc1` [Example 160, 2-(4-methoxystyryl)-N-(5-methyl-1H-pyrazol-3-yl)-6-(4-methylpiperazin-1-yl)pyrimidin-4-amine], the inhibition at 100 µM on recombinant Aurora A amounted to 100%; with HCT-116 cell growth it was 97%. In the case of `Cc1cc(Nc2cc(Cl)nc(/C=C/c3ccccc3)n2)n[nH]1` [Example 34, 6-chloro-N-(3-methyl-1H-pyrazol-5-yl)-2-[(E)-2-phenylvinyl]pyrimidin-4-amine], the inhibition at 100 µM at recombinant Aurora A came out at 99%; in the experiment on HCT-116 cell growth, 98%. On the same counts, the results for `Cc1cc(Nc2cc(Nc3ccc(F)cc3)nc(/C=C/c3ccccc3)n2)n[nH]1` [Example 86, N^4-(4-fluorophenyl)-N^6-(5methyl-1H-pyrazol-3-yl)-2-styrylpyrimidine-4,6-diamine] are 100% and 98%.

`COC(=O)c1ccc(/C=C/c2nc(Nc3cc(C)[nH]n3)c([N+](=O)[O-])c(N3CCN(C)CC3)n2)cc1` [Example 38, methyl 4-((E)-2-{4-(4-methylpiperazin-1-yl)-6-[(3-methyl-1H-pyrazol-5-yl)amino]-5-nitropyrimidin-2-yl}vinyl)benzoate]: the inhibition at 100 µM at recombinant Aurora A worked out at 99%. For `Cc1cc(Nc2cc(OCCN(C)C)nc(/C=C/c3ccccc3)n2)n[nH]1` [Example 69], the inhibition at 100 µM on recombinant Aurora A was 100%; with HCT-116 cell growth, 99%. On the same counts, the results for `Cc1cc(Nc2cc(NCc3ccco3)nc(/C=C/c3ccccc3)n2)n[nH]1` [Example 162, N^4-((furan-2-yl)methyl)-N^6-(5methyl-1H-pyrazol-3-yl)-2-styrylpyrimidine-4,6-diamine] are 100% and 98%. With `Cc1cc(Nc2nc(/C=C/c3ccccc3)nc(C(=O)NCCN3CCOCC3)c2N)[nH]n1` [Example 25, N-(2-morphholin-4-ylethyl)-5-amino-6-[(3-methyl-1H-pyrazol-5-yl)amino]-2-[(E)-2-phenylvinyl]pyrimidine-4-carboxamide], the inhibition at 100 µM on recombinant Aurora A came to 100%; with HCT-116 cell growth, 95%. On the same counts, the results for `Cc1cc(Nc2cc(NC3CCOCC3)nc(/C=C/c3ccccc3)n2)n[nH]1` [Example 99, N^4-(tetrahydro-2H-pyran-4-yl)-N^6-(5-methyl-1H-pyrazol-3-yl)-2-styrylpyrimidine-4,6-diamine] are 100% and 98%. On the same counts, the results for `Cc1cc(Nc2cc(N3CCOCC3)nc(/C=C/c3ccccc3)n2)n[nH]1` [Example 64, N-(5-methyl-1H-pyrazol-3-yl)-6-morpholino-2-styrylpyrimidin-4-amine] are 100% and 98%. As to `Cc1cc(Nc2nc(/C=C/c3ccccc3)nc(N3CCCCC3)c2N)[nH]n1` [Example 14, N-(3-methyl-1H-pyrazol-5-yl)-6-(piperidin-1-yl)-2-[(E)-2-phenylvinyl]pyrimidin-4,5-diamine], the inhibition at 100 µM on recombinant Aurora A was found to be 98%. Still for that read-out and setting: then `Cc1cc(Nc2nc(/C=C/c3ccc(Cl)cc3)nc(N3CCN(C)CC3)c2[N+](=O)[O-])n[nH]1` [Example 171], with 89%; and `Cc1cc(Nc2nc(/C=C/c3ccccc3)nc(N3CCNCC3)c2N)[nH]n1` [Example 13, N-(3-methyl-1H-pyrazol-5-yl)-6-(piperazin-1-yl)-2-[(E)-2-phenylvinyl]pyrimidin-4,5-diamine], with 93%.

On to `COC(=O)c1ccc(/C=C/c2nc(Cl)c([N+](=O)[O-])c(Nc3cc(C)[nH]n3)n2)cc1` [Example 37, methyl 4-((E)-2-{4-chloro-6-[(3-methyl-1H-pyrazol-5-yl)amino]-5-nitropyrimidin-2-yl}vinyl)benzoate], for which the inhibition at 100 µM on recombinant Aurora A came to 80%.

The record behind these values is patent US7563787B2, “Substituted pyrazole compounds” (Miikana Therapeutics, Inc., priority 2005, dated 2009).
